{
  "source": "paper PMC12472947",
  "about": "(Pharmaceuticals, 2025)",
  "key": {"[1]": {"tested_on": "SH-SY5Y neuroblastoma cells", "assay": "Cytotoxicity (neurotoxicity) MTT assay in SH-SY5Y", "assay_type": "cell-based", "settings": "up to 50 µM", "protocol": "(§1) The immortalized human neuroblastoma cell line (SH-SY5Y–ATCC: CRL-2226; BCRJ:0223) was used to evaluate cytotoxicity. The cell line was cultured in Dulbecco’s Modified Eagle’s Medium and F12 in a 1:1 ratio (DMEM:F12; Sigma-Aldrich code 0697, Brazil) supplemented with 10% fetal bovine serum (FBS; Sigma-Aldrich code F2442, Brazil) and 1% streptomycin/penicillin (10,000 U/mL and 10,000 μg/mL, respectively; Nova Biotecnologia code BR30110-01, Cotia, SP, Brazil) and incubated at 37 °C with 5% CO2. The culture medium was replaced every 48 h, until the cells reached semi-confluence (≥70%). Cell passage was carried out with the aid of trypsin-EDTA/0.25% solution (Nova Biotecnologia, Brazil) and divided between 5 or 8 mL culture volumes depending on the respective bottles (25 or 75 cm^2) used.\n(§2) The in vitro cytotoxicity assay evaluated cell viability using the [3-(4,5-dimethylthiazol-2yl)-2,5-diphenyl tetrazolium] bromide (MTT) reduction assay. Cells were seeded at an initial density of 5.0 × 10^4 cells/well in 96-well plates in a volume of 200 µL. […] In the next step, the culture medium was replaced by the sample solution previously described (Section 3.4.2). After 24 h exposure, the medium was replaced with 100 μL of MTT in phosphate-buffer saline (PBS), pH 7.4, at a concentration of 0.5 mg.mL^−1/well and the plates were incubated for an additional 3 h. Then, the MTT solution was removed, and 100 μL of DMSO was added to solubilize the formazan crystals. The cell viability was measured by absorbance at 562 nm using a Microplate Absorbance Reader (Kasuaki, Brazil). All concentrations tested were evaluated in nine replicates (n = 9). The variation in results was observed using ANOVA followed by Tukey’s test for multiple comparisons through GraphPad Prism v5^TM with a significance level of p < 0.05."}, "[2]": {"assay": "Cytotoxicity (neurotoxicity) MTT assay in SH-SY5Y", "assay_type": "cell-based", "settings": "human, SH-SY5Y neuroblastoma cells; for viability at 24 h, 12.5 µM / viability at 24 h, 25 µM / viability at 24 h, 50 µM: MTT, read-out: Cell viability (% of control); for viability at 24 h: up to 25 μM, read-out: cell viability", "protocol": "as §1, §2"}, "[3]": {"molecular_target": "T1, hMAO-B (Homo sapiens, UniProt P27338)", "T1 construct": "purchased Sigma-Aldrich, Gillingham, UK", "T1 sequence (P27338 1-520)": "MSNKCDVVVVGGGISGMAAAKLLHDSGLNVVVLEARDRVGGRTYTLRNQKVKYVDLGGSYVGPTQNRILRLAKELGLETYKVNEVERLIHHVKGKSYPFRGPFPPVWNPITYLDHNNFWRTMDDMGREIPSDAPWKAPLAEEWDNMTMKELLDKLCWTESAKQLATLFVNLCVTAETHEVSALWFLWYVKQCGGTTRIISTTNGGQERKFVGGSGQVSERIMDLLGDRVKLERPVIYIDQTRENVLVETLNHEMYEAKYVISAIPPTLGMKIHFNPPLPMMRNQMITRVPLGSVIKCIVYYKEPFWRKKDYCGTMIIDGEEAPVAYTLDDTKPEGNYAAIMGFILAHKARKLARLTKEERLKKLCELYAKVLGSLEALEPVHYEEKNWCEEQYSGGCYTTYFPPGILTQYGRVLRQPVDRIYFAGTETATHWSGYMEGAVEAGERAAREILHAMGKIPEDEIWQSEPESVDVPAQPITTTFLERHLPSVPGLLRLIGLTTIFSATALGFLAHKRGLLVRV", "assay": "biochemical", "assay_type": "biochemical", "protocol": "The activity of human recombinant membrane-bound monoamine oxidase isoforms A and B (MAO-A/B) (Sigma-Aldrich, Gillingham, UK) in 50 mM potassium phosphate buffer (pH 7.5) was determined by measuring hydrogen peroxide production coupled to the fluorescent dye Amplex Red (Sigma-Aldrich, UK) at a final concentration of 50 μM, in the presence of horseradish peroxidase (HRP, 2.5 U/mL). This coupling reaction generates the fluorescent product resorufin, which was quantified at 30 °C using a fluorescence plate reader.\nReactions were initiated by adding the substrate and dye after a 30 min preincubation of the inhibitor with the enzyme. Data were analyzed using a three-parameter equation in GraphPad Prism 7.0 (San Diego, USA). Each reported value represents the mean of at least two independent determinations."}, "[4]": {"molecular_target": "electric eel acetylcholinesterase (EeAChE) (Electrophorus electricus, UniProt O42275)", "sequence (O42275 24-633)": "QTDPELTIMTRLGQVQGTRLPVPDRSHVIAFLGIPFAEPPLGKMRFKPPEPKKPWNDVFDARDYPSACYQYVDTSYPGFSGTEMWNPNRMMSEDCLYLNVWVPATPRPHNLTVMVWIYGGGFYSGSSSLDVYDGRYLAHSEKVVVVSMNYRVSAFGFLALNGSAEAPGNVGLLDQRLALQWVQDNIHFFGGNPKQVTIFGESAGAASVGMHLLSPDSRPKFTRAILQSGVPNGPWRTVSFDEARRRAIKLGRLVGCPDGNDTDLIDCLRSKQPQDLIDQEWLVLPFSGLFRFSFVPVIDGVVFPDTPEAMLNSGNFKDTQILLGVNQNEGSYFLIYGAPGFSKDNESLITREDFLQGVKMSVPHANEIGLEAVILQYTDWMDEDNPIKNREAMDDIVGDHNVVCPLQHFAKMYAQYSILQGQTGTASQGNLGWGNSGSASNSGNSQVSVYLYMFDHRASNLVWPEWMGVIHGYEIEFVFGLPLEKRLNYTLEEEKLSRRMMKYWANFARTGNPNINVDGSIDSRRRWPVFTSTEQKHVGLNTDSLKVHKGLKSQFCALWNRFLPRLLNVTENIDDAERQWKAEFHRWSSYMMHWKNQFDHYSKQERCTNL", "assay": "Enzymatic kinetic study, EeAChE", "assay_type": "biochemical", "settings": "AChE", "protocol": "(§3) The enzymatic kinetics of cholinesterase inhibition were determined according to an adapted Ellman’s method. All of the solutions were prepared at 20 °C in 0.02 M Tris-HCl buffer (pH 7.5; ionic strength ~0.02 M), stock solutions of test compounds were prepared in DMSO:EtOH (7:3) mixture (20 mM), and the experiment was conducted in triplicate. To a flat-bottom 96-well transparent plate (path length of 0.6 cm) were added 150 μL of treatment solutions with inhibitors 1a, 1h, and 1j at two different concentrations (Table S1) distributed in eight sets of triplicate each. Eight sets of untreated triplicates were used as a negative control. Following, there were added 60 μL of 5,5′-Dithiobis(2-nitrobenzoic acid) (DTNB, Ellman’s reagent) at 1.1 mM and 30 μL of electric eel acetylcholinesterase (EeAChE) or equine serum butyrylcholinesterase (EqBuChE) at 0.20 U/mL in the presence of 1 mg/mL bovine serum albumin (BSA). […] Ki, Ki’ (competitive and noncompetitive inhibition constants, respectively), Km (Michaelis-Menten constant), and Vmax values were calculated with Graphpad Prism v7.0 using the non-linear regression models for enzyme kinetics inhibition and enzyme kinetics–substrate vs. velocity."}, "[5]": {"molecular_target": "T2, equine serum butyrylcholinesterase (EqBuChE) (Equus caballus, UniProt P81908)", "T2 construct": "equine serum BChE [EqBChE]; from tissue; host or cells: equine serum", "T2 sequence (P81908 whole entry)": "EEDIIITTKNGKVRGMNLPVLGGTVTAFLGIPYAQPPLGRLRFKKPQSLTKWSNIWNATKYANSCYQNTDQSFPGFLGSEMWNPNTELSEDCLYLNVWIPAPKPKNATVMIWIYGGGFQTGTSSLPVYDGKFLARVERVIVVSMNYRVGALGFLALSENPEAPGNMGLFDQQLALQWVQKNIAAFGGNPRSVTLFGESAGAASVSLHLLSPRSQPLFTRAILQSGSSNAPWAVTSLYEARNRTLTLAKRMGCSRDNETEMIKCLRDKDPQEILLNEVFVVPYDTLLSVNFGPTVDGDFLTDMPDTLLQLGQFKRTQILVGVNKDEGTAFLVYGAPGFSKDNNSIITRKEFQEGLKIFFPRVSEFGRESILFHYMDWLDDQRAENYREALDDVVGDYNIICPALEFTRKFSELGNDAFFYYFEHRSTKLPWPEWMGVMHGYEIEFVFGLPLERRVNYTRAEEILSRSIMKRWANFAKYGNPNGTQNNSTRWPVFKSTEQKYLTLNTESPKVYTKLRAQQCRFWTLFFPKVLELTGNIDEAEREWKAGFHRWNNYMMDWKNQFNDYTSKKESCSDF", "assay": "Enzymatic kinetic study, EqBChE", "assay_type": "biochemical", "settings": "BChE", "protocol": "as §3"}, "[6]": {"settings": "enzyme-substrate complex, global non-linear regression (Table 2)"}, "[7]": {"settings": "free enzyme (Table S3), read-out: Ki ± SE (95% CI)"}, "[8]": {"settings": "global non-linear regression, mixed inhibition (Table S3)"}},
  "note": "Several values for one entry are separate records, joined by “and”; a condition that tells them apart may be missing. Identical values can stand only once. Entries after “also recorded” stand apart in the source; their conditions may differ. Like-named read-outs stand apart in the source and are kept apart here.",
  "data": [
    {"smiles": "O=c1oc2cc(OCCCN3CCCCC3)ccc2cc1-c1cn(Cc2ccccc2)nn1", "note": "[Compound 1q, 3-(1-Benzyl-1H-1,2,3-triazol-4-yl)-7-(3-(piperidin-1-yl)propoxy)-2H-chromen-2-one]", "values": [
      {"measurement": "neurotoxicity", "setting": "[1]", "result": "non-neurotoxic"},
      {"measurement": "viability at 24 h, 12.5 µM", "setting": "[2]", "result": 99, "unit": "%"},
      {"measurement": "viability at 24 h, 25 µM", "setting": "[2]", "result": 105, "unit": "%"},
      {"measurement": "viability at 24 h, 50 µM", "setting": "[2]", "result": 84, "unit": "%"},
      {"measurement": "viability at 24 h", "setting": "[2]", "result": "≥ 70", "unit": "%"},
      {"measurement": "IC50", "setting": "[3]", "result": 1.69, "unit": "µM"},
      {"measurement": "MAO-B/A selectivity ratio", "setting": "[3]", "result": "greater than 18 fold"}
    ]},
    {"smiles": "O=c1oc2cc(OCCN3CCCCC3)ccc2cc1-c1cn(Cc2ccccc2)nn1", "note": "[Compound 1h, 3-(1-Benzyl-1H-1,2,3-triazol-4-yl)-7-(2-(piperidin-1-yl)ethoxy)-2H-chromen-2-one]", "values": [
      {"measurement": "neurotoxicity", "setting": "[1]", "result": "non-neurotoxic; also recorded: no neurotoxicity"},
      {"measurement": "viability at 24 h, 12.5 µM", "setting": "[2]", "result": 121, "unit": "%"},
      {"measurement": "viability at 24 h, 25 µM", "setting": "[2]", "result": 121, "unit": "%"},
      {"measurement": "viability at 24 h, 50 µM", "setting": "[2]", "result": 111, "unit": "%"},
      {"measurement": "viability at 24 h", "setting": "[2]", "result": "≥ 70", "unit": "%"},
      {"measurement": "inhibition mechanism", "setting": "[4]; Lineweaver-Burk plots", "result": "mixed-type inhibition"},
      {"measurement": "Ki’ (nM) ± SE", "setting": "[4]; [6]", "result": "7.17 ± 1.48", "unit": "nM"},
      {"measurement": "Ki", "setting": "[4]; [7]", "result": "4.73 ± 0.878", "unit": "nM"},
      {"measurement": "Ki", "setting": "[4]; free enzyme, global non-linear regression to mixed-inhibition equation (Table 2), read-out: Ki (nM) ± SE", "result": "4.73 ± 0.88", "unit": "nM"},
      {"measurement": "α ± SE (95% CI)", "setting": "[4]; [8]", "result": "1.516 ± 0.3136"},
      {"measurement": "Vmax ± SD", "setting": "[4]; inhibitor 0.005 μM", "result": "4.45 ± 0.02231 1 × 10^3 nM/min and 4.45 ± 0.02 1 × 10^3 nM/min"},
      {"measurement": "Vmax ± SD", "setting": "[4]; inhibitor 0.007 μM", "result": "3.19 ± 0.0981 1 × 10^3 nM/min and 3.19 ± 0.010 1 × 10^3 nM/min"},
      {"measurement": "inhibition at 1 µM", "setting": "[3]; test concentration of 1 µM, read-out: Percentage of MAO-B inhibition ± SEM", "result": "11.3 ± 1.9", "unit": "%"},
      {"measurement": "inhibition mechanism", "setting": "[5]; Lineweaver-Burk plots", "result": "mixed-type inhibition"},
      {"measurement": "Ki", "setting": "[5]; competitive inhibition constant (Table S2), read-out: Ki (nM) ± SD", "result": "980 ± 24", "unit": "nM"},
      {"measurement": "Ki’ (nM) ± SE", "setting": "[5]; [6]", "result": "4830 ± 620", "unit": "nM"},
      {"measurement": "Ki", "setting": "[5]; [7]", "result": "1250 ± 151", "unit": "nM"},
      {"measurement": "Ki", "setting": "[5]; free enzyme, global non-linear regression (Table 2), read-out: Ki (nM) ± SE", "result": "1250 ± 150", "unit": "nM"},
      {"measurement": "α ± SE (95% CI)", "setting": "[5]; [8]", "result": "3.852 ± 0.4265"},
      {"measurement": "Vmax ± SD", "setting": "[5]; inhibitor 2.8 μM", "result": "3.62 ± 0.1358 1 × 10^3 nM/min and 3.62 ± 0.14 1 × 10^3 nM/min"},
      {"measurement": "Vmax ± SD", "setting": "[5]; inhibitor 4.8 μM", "result": "3.40 ± 0.0349 1 × 10^3 nM/min and 3.40 ± 0.03 1 × 10^3 nM/min"}
    ]}
  ]
}
